This note sets out measurements from ChEMBL document CHEMBL2321823, “Synthesis of novel analogs of cabergoline: improving cardiovascular safety by removing 5-HT2B receptor agonism” (ACS Med Chem Lett, 2013).

SMILES strings stand for the structures.

Data set [1] concerns the target T1, 5-hydroxytryptamine receptor 2B (Homo sapiens, UniProt P41595). Kind of data set: Displacement of [125I](+/-)DOI from human 5-HT2B receptor transfected in CHO cell membrane after 60 mins by scintillation counting analysis. Type of data set: cell membranes.
For data set [2], the target named is T1, 5-hydroxytryptamine receptor 2B. Kind of data set: (§1) Agonist activity at human 5-HT2B receptor transfected in CHO cell assessed as IP1 production incubated for 30 mins measured by HTRF detection method. The class given is cell-based. Conditions: for Activity: human, cho, 0.5 h; call rule not given here.
Data set [3] addresses T2, 5-HT2B receptor (Homo sapiens, UniProt P41595). The description is as §1. The class given is cell-based. Conditions: human, CHO cells transfected with human 5-HT2B receptor.
Data set [4] concerns the target T1, 5-hydroxytryptamine receptor 2B. Kind of data set: (§2) Partial agonist activity at human 5-HT2B receptor expressed in HEK293 cells assessed as intracellular calcium mobilization by FLIPR analysis. Conditions: hek293. Type of data set: cell-based.
For data set [5] the target is unchanged. The experiment in a line: Antagonist activity at human 5-HT2B receptor transfected in CHO cell assessed as decrease in 5-HT-induced IP1 production preincubated for 5 mins before 5-HT addition measured after 30 mins by HTRF detection method. The class given is functional, cell-based.
Data set [6] has as its target T2, 5-HT2B receptor. The data set is described as §2. Conditions: HEK293 cells expressing human 5-HT2B receptor. The class given is cell-based.
Data set [7] deals with D(2) dopamine receptor (Homo sapiens) (UniProt P14416). The experiment in a line: Partial agonist activity at human D2 receptor transfected in HTLA cells measured after overnight incubation by luminescence counter analysis. The class given is cell-based.
Data set [8] concerns the target 5-hydroxytryptamine receptor 2A (Homo sapiens, UniProt P28223). The experiment in a line: Antagonist activity at human 5-HT2A receptor assessed as decrease in agonist-induced intracellular calcium mobilization preincubated for 10 mins prior to agonist addition measured by FLIPR analysis. Type of data set: functional, cell-based.

T1 sequence (P41595 whole entry): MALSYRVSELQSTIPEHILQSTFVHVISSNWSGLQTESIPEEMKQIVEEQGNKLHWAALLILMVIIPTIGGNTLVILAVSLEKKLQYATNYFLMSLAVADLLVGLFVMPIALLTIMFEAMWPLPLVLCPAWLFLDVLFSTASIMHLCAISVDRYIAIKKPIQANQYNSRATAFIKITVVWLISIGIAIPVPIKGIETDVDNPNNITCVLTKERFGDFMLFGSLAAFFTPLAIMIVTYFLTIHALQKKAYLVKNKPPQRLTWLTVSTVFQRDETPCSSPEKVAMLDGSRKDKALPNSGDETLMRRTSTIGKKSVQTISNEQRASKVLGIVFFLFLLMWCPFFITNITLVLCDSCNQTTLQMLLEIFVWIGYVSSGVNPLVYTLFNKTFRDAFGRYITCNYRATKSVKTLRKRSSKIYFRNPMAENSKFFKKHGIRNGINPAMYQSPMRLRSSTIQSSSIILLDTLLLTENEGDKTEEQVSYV
T2 sequence (P41595 whole entry): as above
Sequence of 5-hydroxytryptamine receptor 2A (P28223 whole entry): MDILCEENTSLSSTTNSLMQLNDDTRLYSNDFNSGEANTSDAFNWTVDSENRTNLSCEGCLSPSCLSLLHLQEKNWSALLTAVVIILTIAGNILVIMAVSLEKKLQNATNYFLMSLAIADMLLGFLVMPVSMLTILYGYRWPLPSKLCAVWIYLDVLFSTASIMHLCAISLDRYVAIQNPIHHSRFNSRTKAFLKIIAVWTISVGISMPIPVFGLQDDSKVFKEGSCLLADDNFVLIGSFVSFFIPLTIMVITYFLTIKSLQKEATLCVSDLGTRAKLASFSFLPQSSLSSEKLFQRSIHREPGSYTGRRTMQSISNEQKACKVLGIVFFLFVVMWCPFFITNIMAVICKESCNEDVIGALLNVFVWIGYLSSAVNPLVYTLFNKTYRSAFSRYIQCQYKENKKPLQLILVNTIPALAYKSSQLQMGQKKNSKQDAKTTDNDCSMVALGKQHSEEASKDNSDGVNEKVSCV
Sequence of D(2) dopamine receptor (Homo sapiens) (P14416 whole entry): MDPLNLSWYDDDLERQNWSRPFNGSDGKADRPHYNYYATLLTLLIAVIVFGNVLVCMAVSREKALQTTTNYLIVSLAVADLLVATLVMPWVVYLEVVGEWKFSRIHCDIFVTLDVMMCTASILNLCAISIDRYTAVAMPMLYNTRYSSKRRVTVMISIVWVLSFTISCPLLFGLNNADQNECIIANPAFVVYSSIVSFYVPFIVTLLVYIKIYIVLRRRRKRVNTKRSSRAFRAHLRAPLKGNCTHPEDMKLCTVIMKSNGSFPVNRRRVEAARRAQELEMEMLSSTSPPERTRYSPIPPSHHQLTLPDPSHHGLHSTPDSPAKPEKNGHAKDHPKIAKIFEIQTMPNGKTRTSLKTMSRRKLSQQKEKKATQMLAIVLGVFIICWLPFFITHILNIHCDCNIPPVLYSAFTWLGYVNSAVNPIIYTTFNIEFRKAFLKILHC

In data set [1], `C=CCN1C[C@H](C(=O)N(CCCN(C)C)C(=O)NCC)C[C@@H]2c3cccc4[nH]cc(c34)C[C@H]21` [CABERGOLINE] registered a Ki of 1.4 nM. For the same molecule, the 50% effective concentration (EC50) in data set [2] stood at 13 nM. Besides, the Emax at 0.5 h on 5-HT2B receptor [3] came to 103%.
In data set [1], `COC(OC)[C@@H]1C[C@@H]2c3cccc4c3c(cn4C)C[C@H]2N(C)C1` had a Ki of 0.54 nM. Also, in data set [4], the Activity result is recorded as “Not Active”. Further, in data set [5], the IC50 stood at 13 nM and the Kb came to 3.3 nM. Besides, in data set [2], the Activity result was “Not Active”.
`CN(C)CCCNC(=O)[C@@H]1C[C@@H]2c3cccc4c3c(cn4C)C[C@H]2N(C)C1` showed a Ki in data set [1] of 0.97 nM. In addition, the Emax at 5-HT2B receptor [6] was under 12%. Besides, in data set [5], the concentration for half-maximal inhibition (IC50) turned out to be 37 nM and the antagonist dissociation constant (Kb) is 9.3 nM. Moreover, on 5-HT2B receptor [3], the Emax at 0.5 h is under 12%.
With `CCNC(=O)N(CCCN(C)C)C(=O)[C@@H]1C[C@@H]2c3cccc4c3c(cn4C)C[C@H]2N(C)C1`, the affinity in data set [1] corresponds to a Ki of 1 nM. Also, the Activity result in data set [4] and in data set [2] was “Not Active” throughout. For the same molecule, the maximal response (Emax) in data set [7] is 50%. The half-maximal inhibitory concentration (IC50) in data set [5] is 22 nM; in data set [8], 11500 nM. Also, the antagonist equilibrium constant (Kb) in data set [5] was found to be 5.6 nM.
Regarding `C=CCN1C[C@H](C(=O)N(CCCN2CCOCC2)C(=O)NCC)C[C@@H]2c3cccc4[nH]cc(c34)C[C@H]21`, the Ki in data set [1] was found to be 7.1 nM. The EC50 in data set [2] was 13 nM. Moreover, on 5-HT2B receptor [3], the Emax at 0.5 h turned out to be 106%.
